The values that follow come from publication PMC2746281 (PLoS ONE, 2009).

In one data set the target is T1, Akt1 (Homo sapiens, UniProt P31749).
T1 construct: purchased Proqinase (Germany)
Description: Recombinant kinase screen (Proqinase), Akt1. Format: biochemical. The following applies: recombinant human enzyme; single experiment, kinase screen by Proqinase. The procedure:
(§1) Full details for the generation of recombinant human KIT intracellular domain and other protein kinases (including Lyn, platelet derived growth factor receptor β, epidermal growth factor receptor, fibroblast growth factor receptor 1, Src, HCK, PYK, FES, Btk, Bmx, c-Ret, c-Fms, Syk, and c-Met) are provided in the Supplemental Methods (see Supporting Information; Methods S1). Experiments on ABL1, Akt1, protein kinase C-α, insulin-like growth factor receptor 1, and Pim1 were carried out by Proqinase (Germany). All other recombinant protein kinases were performed in-house using an enzyme-linked immunoassay; experimental details are provided in the Supplemental Methods (see Supporting Information; Methods S1).

The test system of another data set is primary BMMCs. Nature of the data set: IL-3-stimulated proliferation of primary BMMCs. Format: cell-based, mice. The following applies: Mus musculus, BMMC, primary murine BMMCs. The protocol: (§2) (B) western blotting analysis of HMC-1α155 tyrosine phosphorylation. […] (D) Western blotting analysis of BMMC tyrosine phosphorylation. Cell proliferation was assessed by WST-1 colorimetric assay. […] MW = molecular weight.

A further data set deals with PDGFRβ (Homo sapiens, UniProt P09619). Description: Recombinant kinase ELISA assay, PDGFRβ. It counts as biochemical. Further details: PDGF receptor β (residues 554–1106; BC032224); 6xHN (N); made in house; host or cells: baculovirus, Sf9 insect cells. The following applies: recombinant human enzyme; ELISA-based assay, poly(Glu,Tyr 4:1) substrate. The procedure: as §1
A general note: An ELISA detects its analyte on a solid surface through an enzyme-linked reagent.

In a further data set the target is Flt3 (Homo sapiens, UniProt P36888). Description: Recombinant kinase ELISA assay, Flt3. Format: biochemical. The following applies: recombinant human enzyme; ELISA-based assay, poly(Glu,Tyr 4:1) substrate. The protocol:
as §1

The target in the next data set is TrkB (Homo sapiens, UniProt Q16620). The following applies: read-out: Cell-based assay IC50, TrkB; Ba/F3 cells expressing the enzyme; cell proliferation, WST-1. For orientation: Formazan colour is commonly taken as a measure of viable cells.
The next data set deals with VEGFR2 (Homo sapiens, UniProt P35968). Description: Recombinant kinase ELISA assay, VEGFR2. Format: biochemical. The note with it: recombinant human enzyme; ELISA-based assay, poly(Glu,Tyr 4:1) substrate. The protocol:
as §1

The next data set deals with T2, c-Fms (Homo sapiens, UniProt P07333).
T2 construct: c-Fms (538–972; BC047531); 6xHN (N); made in house; host or cells: baculovirus, Sf9 insect cells
Nature of the data set: Recombinant kinase ELISA assay, c-Fms. It counts as biochemical. The following applies: recombinant human enzyme; ELISA-based assay, poly(Glu,Tyr 4:1) substrate. The procedure: as §1
The sequences encoding PDGF receptor β (residues 554–1106; GenBank accession no. BC032224), Lyn B (2–583; accession no. BC059394), fibroblast growth factor receptor 1 (572–959; accession no. BC018128), Src (2–536; accession no. BC011566), Btk (2–659; accession no. BC109079), Bmx (2–675; accession no. BC016652), c-Ret (713–1114; accession no. BC004257), c-Fms (538–972; BC047531), Syk (2–612; BC011399), Hck (2-526; accession no. BC014435), Fes (2-822; accession no. BC035357), PYK2 (2-1006; accession no. BC042599) and c-Met (949–1398; accession no. lifeseq3489592) were amplified by PCR from IMAGE cDNA clones purchased from Openbiosystems. […]

Another data set relates to HMC-1α155 cells. Nature of the data set: Mastocytoma cell line proliferation (WST-1), HMC-1α155. The following applies: Homo sapiens, 48 h; 2 days; KIT juxtamembrane mutation. Format: cell-based. The protocol:
as §2

Data set [1] deals with Salmonella typhimurium and Escherichia coli. Nature of the data set: Bacterial reverse mutation test. The following applies: our unpublished results.
Data set [2] deals with human cord-blood-derived mast cells (CBMC). Description: FcεRI-mediated degranulation (β-hexosaminidase release) of IgE-anti IgE activated CBMC. Format: cell-based. The following applies: Mast cell, 0.5 h, 30 minutes of stimulation. The protocol: (see Supporting Information; Methods S1). […] Assays of β-hexosaminidase release and TNF-α release were made by stimulating the CBMC with 1 µg/ml of goat anti-human IgE (Vector Laboratories) for 30 minutes or 4 hours, respectively. β-hexosaminidase was measured in the supernatant and in the sonicated cell pellets and its net release calculated. For TNF-α determination, the cell-free supernatants were collected by centrifugation and frozen at −80°C until determination of mediator content by the use of a specific ELISA kit according to manufacturer's instructions (Coulter, France). All assays were performed in duplicate and counts were repeated twice for each well.
Human CBMC were produced by long-term culture of CD34+ progenitors purified from normal cord-blood. […] At the beginning of the culture, rhIL-3 (1 ng/ml) (R&D Systems Europe, France) was also added to induce maximal expansion of haematopoietic progenitors. After 3 days the IL-3 was removed and 4 days later cells were transferred to a complete serum-free medium containing rmSCF at 100 ng/ml, which was renewed every 7 days thereafter. After 8 weeks in culture ≥99% of the cells were identified as being mast cells by May-Grünwald-Giemsa staining of cytocentrifuged samples.

Data set [3] addresses Epidermal growth factor receptor (Homo sapiens, UniProt P00533). Description: Recombinant kinase ELISA assay, EGFR. Format: biochemical. Further details: The cDNA encoding the EGF receptor (664–1210); 6xHN (N); made in house; host or cells: baculovirus, Sf9 insect cells. The note with it: recombinant human enzyme; ELISA-based assay, poly(Glu,Tyr 4:1) substrate. The protocol:
as §1
A 96-well microtitre plate (Immulon 2HB; ThermoLifeScience, Finland) was coated overnight with 0.25 mg/ml poly(Glu,Tyr 4:1), rinsed twice with 250 µl of washing buffer (10 mM phosphate-buffered saline [pH 7.4] and 0.05% Tween 20) and dried for 2 hours at room temperature. […] Reactions were initiated upon introduction of the enzyme and terminated with the addition of one reaction volume (50 μl) of 100 mM EDTA per 5 M urea mix. […] The final reaction product was quantified by spectrophotometry at 450 nm.

Molecules are shown by their SMILES.

One may read the IC50 as the concentration at which inhibition is half-maximal. In general, inhibition refers to how much of the control response was suppressed. The low end stands for little suppression, the high end for strong suppression.

Epidermal growth factor receptor, sequence (P00533 664-1210): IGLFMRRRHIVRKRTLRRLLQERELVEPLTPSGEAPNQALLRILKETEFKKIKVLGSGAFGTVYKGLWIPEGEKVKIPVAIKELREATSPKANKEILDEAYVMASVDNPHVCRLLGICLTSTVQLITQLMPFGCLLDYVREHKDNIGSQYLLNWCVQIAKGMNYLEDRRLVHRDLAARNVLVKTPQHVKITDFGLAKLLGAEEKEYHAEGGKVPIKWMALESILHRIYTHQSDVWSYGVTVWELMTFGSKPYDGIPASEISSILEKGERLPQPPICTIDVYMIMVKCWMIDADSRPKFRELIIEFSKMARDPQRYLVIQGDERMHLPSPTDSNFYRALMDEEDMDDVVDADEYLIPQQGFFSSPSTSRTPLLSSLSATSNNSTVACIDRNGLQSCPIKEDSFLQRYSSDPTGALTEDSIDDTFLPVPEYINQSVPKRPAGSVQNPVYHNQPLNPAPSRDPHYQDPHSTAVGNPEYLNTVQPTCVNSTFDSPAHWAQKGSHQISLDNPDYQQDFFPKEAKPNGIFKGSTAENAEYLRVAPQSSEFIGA
T1 sequence (P31749 whole entry): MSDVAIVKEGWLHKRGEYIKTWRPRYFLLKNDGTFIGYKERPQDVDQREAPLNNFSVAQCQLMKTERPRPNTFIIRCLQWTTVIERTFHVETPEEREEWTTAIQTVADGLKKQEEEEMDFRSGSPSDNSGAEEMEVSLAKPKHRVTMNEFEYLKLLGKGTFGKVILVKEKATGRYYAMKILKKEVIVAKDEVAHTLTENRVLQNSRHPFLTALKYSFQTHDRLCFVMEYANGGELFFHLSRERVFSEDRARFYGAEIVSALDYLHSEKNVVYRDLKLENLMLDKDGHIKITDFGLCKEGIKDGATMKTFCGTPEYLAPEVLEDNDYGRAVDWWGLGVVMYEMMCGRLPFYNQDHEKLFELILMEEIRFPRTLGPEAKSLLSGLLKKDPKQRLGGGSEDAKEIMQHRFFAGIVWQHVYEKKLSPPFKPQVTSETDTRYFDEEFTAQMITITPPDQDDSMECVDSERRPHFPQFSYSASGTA
Flt3, sequence (P36888 27-993): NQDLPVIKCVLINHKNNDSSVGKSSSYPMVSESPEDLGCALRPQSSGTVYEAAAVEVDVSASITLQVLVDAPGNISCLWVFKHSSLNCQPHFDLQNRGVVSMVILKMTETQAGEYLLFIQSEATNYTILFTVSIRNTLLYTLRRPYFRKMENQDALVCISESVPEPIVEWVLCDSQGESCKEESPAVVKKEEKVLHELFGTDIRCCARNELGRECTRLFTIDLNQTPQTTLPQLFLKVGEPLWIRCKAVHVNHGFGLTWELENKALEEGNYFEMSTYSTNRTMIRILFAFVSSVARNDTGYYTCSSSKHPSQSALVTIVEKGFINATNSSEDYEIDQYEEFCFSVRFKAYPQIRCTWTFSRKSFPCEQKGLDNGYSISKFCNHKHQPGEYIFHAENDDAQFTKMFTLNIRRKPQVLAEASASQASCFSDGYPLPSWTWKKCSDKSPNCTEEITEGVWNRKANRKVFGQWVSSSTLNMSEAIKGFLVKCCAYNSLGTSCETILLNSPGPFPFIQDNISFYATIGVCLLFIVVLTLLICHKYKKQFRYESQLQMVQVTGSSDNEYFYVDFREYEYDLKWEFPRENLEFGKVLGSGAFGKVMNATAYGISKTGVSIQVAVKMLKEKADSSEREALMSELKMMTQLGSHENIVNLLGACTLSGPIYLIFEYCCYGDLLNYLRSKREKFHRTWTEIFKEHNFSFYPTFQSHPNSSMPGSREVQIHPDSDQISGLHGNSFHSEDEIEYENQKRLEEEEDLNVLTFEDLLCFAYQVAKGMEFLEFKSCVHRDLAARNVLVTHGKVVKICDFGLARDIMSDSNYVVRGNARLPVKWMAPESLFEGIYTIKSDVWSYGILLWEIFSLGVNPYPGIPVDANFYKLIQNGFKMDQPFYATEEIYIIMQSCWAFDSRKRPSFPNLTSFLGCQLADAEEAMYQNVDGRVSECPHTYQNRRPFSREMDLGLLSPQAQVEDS
T2 sequence (P07333 538-972): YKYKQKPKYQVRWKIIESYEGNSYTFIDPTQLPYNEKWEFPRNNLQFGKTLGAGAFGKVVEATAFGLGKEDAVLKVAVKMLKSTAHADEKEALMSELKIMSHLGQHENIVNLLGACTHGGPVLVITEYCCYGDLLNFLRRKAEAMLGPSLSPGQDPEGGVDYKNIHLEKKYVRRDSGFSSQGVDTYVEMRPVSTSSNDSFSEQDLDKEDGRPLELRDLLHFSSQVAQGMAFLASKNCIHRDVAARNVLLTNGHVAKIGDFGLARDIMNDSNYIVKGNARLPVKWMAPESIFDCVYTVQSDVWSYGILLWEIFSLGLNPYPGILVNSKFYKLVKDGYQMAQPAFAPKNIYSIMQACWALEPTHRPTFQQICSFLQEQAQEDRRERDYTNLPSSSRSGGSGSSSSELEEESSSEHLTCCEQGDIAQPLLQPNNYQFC
VEGFR2, sequence (P35968 20-1356): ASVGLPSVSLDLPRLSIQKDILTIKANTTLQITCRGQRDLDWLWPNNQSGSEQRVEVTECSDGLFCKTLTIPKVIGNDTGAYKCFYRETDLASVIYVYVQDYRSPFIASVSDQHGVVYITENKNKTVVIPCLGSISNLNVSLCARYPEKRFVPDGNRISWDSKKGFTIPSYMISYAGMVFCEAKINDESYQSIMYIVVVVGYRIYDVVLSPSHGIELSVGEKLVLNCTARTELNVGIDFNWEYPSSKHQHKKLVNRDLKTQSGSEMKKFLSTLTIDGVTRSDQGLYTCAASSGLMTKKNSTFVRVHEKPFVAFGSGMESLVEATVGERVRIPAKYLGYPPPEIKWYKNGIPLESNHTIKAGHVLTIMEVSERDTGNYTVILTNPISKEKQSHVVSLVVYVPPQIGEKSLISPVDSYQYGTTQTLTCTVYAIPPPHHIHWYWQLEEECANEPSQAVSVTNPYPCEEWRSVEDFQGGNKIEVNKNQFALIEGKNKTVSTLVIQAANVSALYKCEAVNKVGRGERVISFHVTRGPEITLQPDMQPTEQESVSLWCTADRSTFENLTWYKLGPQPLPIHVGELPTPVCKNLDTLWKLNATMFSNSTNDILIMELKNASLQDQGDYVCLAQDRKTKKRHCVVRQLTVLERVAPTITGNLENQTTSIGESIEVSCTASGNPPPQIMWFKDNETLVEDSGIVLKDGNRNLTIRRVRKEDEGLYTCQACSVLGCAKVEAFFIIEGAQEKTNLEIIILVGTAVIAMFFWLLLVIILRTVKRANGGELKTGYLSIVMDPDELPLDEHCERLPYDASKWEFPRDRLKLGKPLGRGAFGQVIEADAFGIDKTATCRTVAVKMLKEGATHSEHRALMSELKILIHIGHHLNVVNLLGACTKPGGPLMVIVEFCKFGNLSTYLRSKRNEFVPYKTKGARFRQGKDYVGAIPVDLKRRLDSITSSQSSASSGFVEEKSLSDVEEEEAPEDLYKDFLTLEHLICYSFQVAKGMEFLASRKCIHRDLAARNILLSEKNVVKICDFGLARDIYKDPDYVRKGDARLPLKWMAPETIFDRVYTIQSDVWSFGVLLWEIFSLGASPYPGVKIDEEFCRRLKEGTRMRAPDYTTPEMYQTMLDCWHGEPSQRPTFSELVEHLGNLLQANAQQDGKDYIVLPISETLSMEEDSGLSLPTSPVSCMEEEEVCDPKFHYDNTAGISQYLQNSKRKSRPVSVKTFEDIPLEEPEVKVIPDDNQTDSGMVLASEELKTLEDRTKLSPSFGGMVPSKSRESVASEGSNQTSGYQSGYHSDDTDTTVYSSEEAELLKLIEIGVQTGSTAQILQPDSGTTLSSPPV
TrkB, sequence (Q16620 32-822, species assumed): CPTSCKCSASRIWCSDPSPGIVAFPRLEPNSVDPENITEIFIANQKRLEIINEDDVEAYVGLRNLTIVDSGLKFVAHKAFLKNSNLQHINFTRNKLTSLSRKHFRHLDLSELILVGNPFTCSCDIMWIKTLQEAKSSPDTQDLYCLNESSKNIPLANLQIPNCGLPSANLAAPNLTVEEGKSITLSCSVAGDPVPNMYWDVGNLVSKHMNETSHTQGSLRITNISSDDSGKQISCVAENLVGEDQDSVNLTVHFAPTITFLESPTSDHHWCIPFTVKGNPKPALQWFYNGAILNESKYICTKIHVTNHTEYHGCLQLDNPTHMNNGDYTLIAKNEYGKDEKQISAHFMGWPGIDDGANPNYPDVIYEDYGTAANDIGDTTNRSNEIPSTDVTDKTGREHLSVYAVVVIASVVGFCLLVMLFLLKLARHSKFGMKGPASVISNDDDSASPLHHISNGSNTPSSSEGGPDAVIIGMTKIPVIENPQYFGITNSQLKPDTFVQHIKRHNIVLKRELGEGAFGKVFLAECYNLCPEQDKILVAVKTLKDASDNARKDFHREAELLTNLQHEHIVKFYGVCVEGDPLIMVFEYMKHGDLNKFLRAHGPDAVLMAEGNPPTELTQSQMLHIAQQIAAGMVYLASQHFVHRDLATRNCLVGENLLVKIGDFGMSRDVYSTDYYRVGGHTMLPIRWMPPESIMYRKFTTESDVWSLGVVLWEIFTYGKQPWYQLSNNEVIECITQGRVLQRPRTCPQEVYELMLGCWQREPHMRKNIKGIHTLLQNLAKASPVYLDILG

`CS(=O)(=O)O.CS(=O)(=O)O.Cc1ccc(NC(=O)c2ccc(CN3CCN(C)CC3)cc2)cc1Nc1nc(-c2cccnc2)cs1` [masitinib, 4-(4-methylpiperazin-1-ylmethyl)-N-[4-methyl-3-(4-pyridin-3ylthiazol-2-ylamino)phenyl]benzamide-mesylate methane sulfonic acid salt]: the 50% inhibitory concentration (IC50) was above 10 µM at Akt1; above 10 µM with primary BMMCs; 0.8 ± 0.12 µM on PDGFRβ; above 10 µM at Flt3; 7 ± 1.9 µM at TrkB; above 10 µM at VEGFR2. The IC50 is 1.48 ± 0.54 µM on c-Fms, around 0.01 µM with HMC-1α155 cells and above 10 µM in data set [3]. Further, the “mutagenicity in bacterial reverse mutation tests” value in data set [1] is given as “not mutagenic”. 0.1 µM produced 7% inhibition in data set [2] (0.1 µM). Besides, 1 µM produced 18% inhibition in data set [2] (1.0 µM). Further, in data set [2] (10 µM), the inhibition at 10 µM came to 35%.
